Data taken from US11236092B2, “Spiro-condensed pyrrolidine derivatives as deubiquitylating enzymes (DUB) inhibitors” (MISSION THERAPEUTICS LIMITED, priority 2016, dated 2022).

What follows are substances tested against Cezanne 1 (Homo sapiens (Human), UniProt Q6GQQ9) (assay: Cezanne 1 biochemical IC50 assay (fluorescence polarisation)). Settings: FLAG-Cezanne 1; enzyme and compound incubated 30 min at room temp; 50 nM TAMRA labelled peptide linked to ubiquitin as substrate; read after 2 hr; read-out: IC50 range.
Chain of Cezanne 1 (Q6GQQ9 whole entry): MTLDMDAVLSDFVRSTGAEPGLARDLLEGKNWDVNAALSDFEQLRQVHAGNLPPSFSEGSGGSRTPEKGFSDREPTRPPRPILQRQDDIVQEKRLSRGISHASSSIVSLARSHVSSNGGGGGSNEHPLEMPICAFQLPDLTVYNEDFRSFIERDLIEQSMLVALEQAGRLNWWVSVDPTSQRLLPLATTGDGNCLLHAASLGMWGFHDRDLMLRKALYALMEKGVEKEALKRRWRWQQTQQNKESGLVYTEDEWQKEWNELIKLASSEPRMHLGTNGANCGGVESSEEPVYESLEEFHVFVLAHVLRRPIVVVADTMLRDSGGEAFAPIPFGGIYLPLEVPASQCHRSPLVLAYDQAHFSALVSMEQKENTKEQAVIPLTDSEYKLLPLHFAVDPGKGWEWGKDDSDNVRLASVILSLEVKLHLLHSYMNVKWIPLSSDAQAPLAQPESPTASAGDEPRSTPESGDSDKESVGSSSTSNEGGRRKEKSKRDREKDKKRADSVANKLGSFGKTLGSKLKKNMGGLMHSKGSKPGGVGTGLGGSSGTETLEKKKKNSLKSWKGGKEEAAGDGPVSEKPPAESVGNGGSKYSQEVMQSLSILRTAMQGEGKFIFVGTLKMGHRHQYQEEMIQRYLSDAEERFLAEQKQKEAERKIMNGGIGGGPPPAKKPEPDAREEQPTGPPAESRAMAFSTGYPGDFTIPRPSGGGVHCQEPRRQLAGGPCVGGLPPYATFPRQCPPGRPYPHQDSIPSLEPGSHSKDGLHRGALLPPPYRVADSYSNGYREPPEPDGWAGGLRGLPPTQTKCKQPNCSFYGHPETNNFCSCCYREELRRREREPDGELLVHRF
Experimental: Expression and Purification of Cezanne 1
The Cezanne 1 construct was PCR amplified and cloned into a pFLAG-CMV-6c vector (Sigma-Aldrich) with an N-terminal FLAG tag. HEK293T cells were transfected with FLAG-Cezanne 1 using TransIT-LT1 transfection reagent (Mirus) according to the manufacturer's instructions. Cells were harvested 48 hours after transfection. […] The resin was washed two times with low salt buffer and one time with high salt buffer (20 mM Tris, pH 7.5, 500 mM NaCl, 0.5 mM EDTA, 5 mM beta-mercaptoethanol, protease inhibitors (complete mini, Roche) and phosphatase inhibitors (PhosSTOP mini, Roche). To elute the bound Cezanne 1, elution buffer (10 mM Tris, pH 7.5, 150 mM NaCl, 0.5 mM EDTA, 10% glycerol, 0.5% NP40, 5 mM beta-mercaptoethanol, 0.15 mg/ml 3X FLAG peptide (Sigma-Aldrich)) was added to the resin and incubated at 4° C. for 2.5 hours while rotating. The resin was centrifuged at 4000 rpm for 30 seconds, and the supernatant containing purified FLAG-Cezanne 1 was removed and stored at −80° C.
Cezanne 1 Biochemical IC50 Assay
Dilution plates were prepared at 21 times the final concentration (2100 μM for a final concentration of 100 μM) in 50% DMSO in a 96-well polypropylene V-bottom plate (Greiner #651201). A typical 8-point dilution series to be 100, 30, 10, 3, 1, 0.3, 0.1, 0.03 μM final. Reactions were performed in duplicate in black 384 well plates (small volume, Greiner 784076) in a final reaction volume of 21 μl. Either 1 μl of 50% DMSO or diluted compound was added to the plate. Cezanne 1 was diluted in reaction buffer (40 mM Tris, pH 7.5, 0.005% Tween 20, 0.5 mg/ml BSA, 5 mM—beta-mercaptoethanol) to the equivalent of 0.005 μl/well and 10 μl of diluted Cezanne 1 was added to the compound. Enzyme and compound were incubated for 30 min at room temp. Reactions were initiated by the addition of 50 nM of TAMRA labelled peptide linked to ubiquitin via an iso-peptide bond as fluorescence polarisation substrate. Reactions were read immediately after addition of substrate and following a 2 hr incubation at room temperature. Readings were performed on a Pherastar Plus (BMG Labtech). λ Excitation 540 nm; λ Emission 590 nm.
“7′-(1-Methyl-1H-pyrazol-5-yl)-2′-oxo-1′,4′-dihydro-2′H-spiro┌pyrrolidine-3,3′-quinoline┐-1-carbonitrile [Example 10]” showed an IC50 of 1000 to 10000 nM. With “7′-(2-Methylpyridin-4-yl)-2′-oxo-1′,4′-dihydro-2′H-spiro┌pyrrolidine-3,3′-quinoline┐-1-carbonitrile [Example 34]” the IC50 was 1000 to 10000 nM. In the case of “3-(1-Cyano-2′-oxo-1′4′-dihydro-2′H-spiro┌pyrrolidine-3,3′-quinolin┐-7′-yl)-N,N-dimethylbenzamide [Example 30]”, the IC50 is reported as 100 to 1000 nM. “7′-(3-Cyanophenyl)-2′-oxo-l′,4′-dihydro-2′H-spiro┌pyrrolidine-3,3′-quinoline┐-1-carbonitrile [Example 9]” was tested, and the IC50 was 1000 to 10000 nM. Substance “2′-Oxo-7′-(4-phenoxyphenyl)-l′,4′-dihydro-2′H-spiro┌pyrrolidine-3,3′-quinoline┐-1-carbonitrile [Example 11]” has an IC50 of 1000 to 10000 nM.
